Measured values: ChEMBL document CHEMBL4507268 (2021)

Columns and labels:
Conditions in all cases: Compound concentration 1.0 uM
[1] = molecular target: Serine/threonine-protein kinase SBK1 (Homo sapiens) (UniProt Q52WX2)
[2] = molecular target: T1, Ephrin type-A receptor 3 (Homo sapiens) (UniProt P29320)
T1 sequence (whole entry): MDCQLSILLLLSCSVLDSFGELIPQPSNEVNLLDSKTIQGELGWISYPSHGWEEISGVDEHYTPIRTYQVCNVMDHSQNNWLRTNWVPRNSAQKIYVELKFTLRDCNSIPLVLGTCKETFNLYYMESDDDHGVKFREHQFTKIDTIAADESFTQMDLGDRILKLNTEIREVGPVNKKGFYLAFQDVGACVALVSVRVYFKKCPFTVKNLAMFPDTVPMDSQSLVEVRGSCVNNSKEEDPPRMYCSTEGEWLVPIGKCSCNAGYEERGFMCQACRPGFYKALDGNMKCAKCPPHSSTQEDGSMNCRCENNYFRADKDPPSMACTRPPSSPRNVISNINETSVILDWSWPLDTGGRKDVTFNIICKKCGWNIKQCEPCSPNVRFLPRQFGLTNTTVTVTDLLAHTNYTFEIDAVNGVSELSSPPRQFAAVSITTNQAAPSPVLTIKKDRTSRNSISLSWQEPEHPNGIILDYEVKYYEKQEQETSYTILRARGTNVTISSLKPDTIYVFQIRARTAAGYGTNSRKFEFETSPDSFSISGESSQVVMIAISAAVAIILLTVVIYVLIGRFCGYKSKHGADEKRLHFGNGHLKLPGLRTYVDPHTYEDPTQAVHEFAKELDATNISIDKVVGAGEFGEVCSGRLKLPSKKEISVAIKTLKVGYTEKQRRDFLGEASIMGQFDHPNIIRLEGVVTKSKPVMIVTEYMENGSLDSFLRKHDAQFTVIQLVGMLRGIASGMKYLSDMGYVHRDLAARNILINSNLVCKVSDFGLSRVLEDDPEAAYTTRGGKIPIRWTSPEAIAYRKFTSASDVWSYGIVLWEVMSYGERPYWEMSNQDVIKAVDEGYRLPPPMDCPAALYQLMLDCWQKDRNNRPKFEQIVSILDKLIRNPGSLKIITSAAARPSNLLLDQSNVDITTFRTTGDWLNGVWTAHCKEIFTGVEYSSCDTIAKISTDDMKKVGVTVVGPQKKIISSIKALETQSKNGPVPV

[3] = molecular target: Cyclin-dependent kinase 13/Cyclin-K (Homo sapiens) (UniProt Q14004+O75909)
[4] = molecular target: DNA-dependent protein kinase catalytic subunit (Homo sapiens) (UniProt P78527)
[5] = molecular target: Tyrosine-protein kinase HCK (Homo sapiens) (UniProt P08631)
[6] = molecular target: T2, SNF-related serine/threonine-protein kinase (Homo sapiens) (UniProt Q9NRH2)
T2 sequence (whole entry): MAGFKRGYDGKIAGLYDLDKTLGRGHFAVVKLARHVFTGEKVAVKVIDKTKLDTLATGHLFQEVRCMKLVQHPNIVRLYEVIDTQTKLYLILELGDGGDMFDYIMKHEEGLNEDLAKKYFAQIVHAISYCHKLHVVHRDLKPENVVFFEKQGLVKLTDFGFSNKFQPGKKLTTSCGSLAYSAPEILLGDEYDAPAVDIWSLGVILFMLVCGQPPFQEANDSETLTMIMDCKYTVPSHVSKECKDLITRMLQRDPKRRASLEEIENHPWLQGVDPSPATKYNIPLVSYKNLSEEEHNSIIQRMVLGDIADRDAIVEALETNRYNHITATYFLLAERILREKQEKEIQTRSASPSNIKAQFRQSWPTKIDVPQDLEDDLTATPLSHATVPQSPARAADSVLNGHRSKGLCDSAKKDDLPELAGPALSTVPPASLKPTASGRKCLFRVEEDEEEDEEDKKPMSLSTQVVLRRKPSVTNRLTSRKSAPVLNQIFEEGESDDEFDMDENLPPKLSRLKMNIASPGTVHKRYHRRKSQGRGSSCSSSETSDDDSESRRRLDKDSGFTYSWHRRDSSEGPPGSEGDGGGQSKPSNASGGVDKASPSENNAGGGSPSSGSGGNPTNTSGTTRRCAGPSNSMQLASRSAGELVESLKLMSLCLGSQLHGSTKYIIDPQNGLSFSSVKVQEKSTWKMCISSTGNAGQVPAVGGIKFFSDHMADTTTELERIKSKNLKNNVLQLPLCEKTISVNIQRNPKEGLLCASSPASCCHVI

[7] = molecular target: T3, Serine/threonine-protein kinase Nek2 (Homo sapiens) (UniProt P51955)
T3 sequence (whole entry): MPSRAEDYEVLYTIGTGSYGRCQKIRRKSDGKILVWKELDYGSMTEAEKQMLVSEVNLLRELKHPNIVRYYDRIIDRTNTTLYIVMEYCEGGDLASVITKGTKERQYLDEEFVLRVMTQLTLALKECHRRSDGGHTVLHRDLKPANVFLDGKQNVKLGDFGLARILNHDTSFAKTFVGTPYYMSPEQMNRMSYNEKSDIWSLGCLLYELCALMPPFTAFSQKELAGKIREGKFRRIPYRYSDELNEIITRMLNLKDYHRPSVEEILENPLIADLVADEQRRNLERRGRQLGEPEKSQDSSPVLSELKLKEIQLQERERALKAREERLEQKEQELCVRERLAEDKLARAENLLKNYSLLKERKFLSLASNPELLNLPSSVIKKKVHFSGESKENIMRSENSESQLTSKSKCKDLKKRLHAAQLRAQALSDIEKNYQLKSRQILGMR

[8] = molecular target: T4, Serine/threonine-protein kinase NLK (Homo sapiens) (UniProt Q9UBE8)
T4 sequence (whole entry): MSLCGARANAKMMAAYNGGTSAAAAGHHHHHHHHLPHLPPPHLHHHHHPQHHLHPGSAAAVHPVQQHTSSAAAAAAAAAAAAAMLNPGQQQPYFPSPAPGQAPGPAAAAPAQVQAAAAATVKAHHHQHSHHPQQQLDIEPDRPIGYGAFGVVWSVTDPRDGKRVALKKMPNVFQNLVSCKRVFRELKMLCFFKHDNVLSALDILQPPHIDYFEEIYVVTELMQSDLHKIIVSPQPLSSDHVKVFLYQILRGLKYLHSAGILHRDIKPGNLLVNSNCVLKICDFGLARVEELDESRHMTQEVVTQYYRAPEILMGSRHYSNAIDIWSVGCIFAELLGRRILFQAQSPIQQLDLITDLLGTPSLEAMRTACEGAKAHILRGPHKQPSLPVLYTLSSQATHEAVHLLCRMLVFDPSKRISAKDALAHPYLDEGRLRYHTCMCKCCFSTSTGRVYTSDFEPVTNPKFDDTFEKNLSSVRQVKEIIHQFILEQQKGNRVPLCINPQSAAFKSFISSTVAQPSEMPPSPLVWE

Measured: % residual kinase activity

DNA-dependent protein kinase catalytic subunit (Homo sapiens), sequence (P78527 whole entry): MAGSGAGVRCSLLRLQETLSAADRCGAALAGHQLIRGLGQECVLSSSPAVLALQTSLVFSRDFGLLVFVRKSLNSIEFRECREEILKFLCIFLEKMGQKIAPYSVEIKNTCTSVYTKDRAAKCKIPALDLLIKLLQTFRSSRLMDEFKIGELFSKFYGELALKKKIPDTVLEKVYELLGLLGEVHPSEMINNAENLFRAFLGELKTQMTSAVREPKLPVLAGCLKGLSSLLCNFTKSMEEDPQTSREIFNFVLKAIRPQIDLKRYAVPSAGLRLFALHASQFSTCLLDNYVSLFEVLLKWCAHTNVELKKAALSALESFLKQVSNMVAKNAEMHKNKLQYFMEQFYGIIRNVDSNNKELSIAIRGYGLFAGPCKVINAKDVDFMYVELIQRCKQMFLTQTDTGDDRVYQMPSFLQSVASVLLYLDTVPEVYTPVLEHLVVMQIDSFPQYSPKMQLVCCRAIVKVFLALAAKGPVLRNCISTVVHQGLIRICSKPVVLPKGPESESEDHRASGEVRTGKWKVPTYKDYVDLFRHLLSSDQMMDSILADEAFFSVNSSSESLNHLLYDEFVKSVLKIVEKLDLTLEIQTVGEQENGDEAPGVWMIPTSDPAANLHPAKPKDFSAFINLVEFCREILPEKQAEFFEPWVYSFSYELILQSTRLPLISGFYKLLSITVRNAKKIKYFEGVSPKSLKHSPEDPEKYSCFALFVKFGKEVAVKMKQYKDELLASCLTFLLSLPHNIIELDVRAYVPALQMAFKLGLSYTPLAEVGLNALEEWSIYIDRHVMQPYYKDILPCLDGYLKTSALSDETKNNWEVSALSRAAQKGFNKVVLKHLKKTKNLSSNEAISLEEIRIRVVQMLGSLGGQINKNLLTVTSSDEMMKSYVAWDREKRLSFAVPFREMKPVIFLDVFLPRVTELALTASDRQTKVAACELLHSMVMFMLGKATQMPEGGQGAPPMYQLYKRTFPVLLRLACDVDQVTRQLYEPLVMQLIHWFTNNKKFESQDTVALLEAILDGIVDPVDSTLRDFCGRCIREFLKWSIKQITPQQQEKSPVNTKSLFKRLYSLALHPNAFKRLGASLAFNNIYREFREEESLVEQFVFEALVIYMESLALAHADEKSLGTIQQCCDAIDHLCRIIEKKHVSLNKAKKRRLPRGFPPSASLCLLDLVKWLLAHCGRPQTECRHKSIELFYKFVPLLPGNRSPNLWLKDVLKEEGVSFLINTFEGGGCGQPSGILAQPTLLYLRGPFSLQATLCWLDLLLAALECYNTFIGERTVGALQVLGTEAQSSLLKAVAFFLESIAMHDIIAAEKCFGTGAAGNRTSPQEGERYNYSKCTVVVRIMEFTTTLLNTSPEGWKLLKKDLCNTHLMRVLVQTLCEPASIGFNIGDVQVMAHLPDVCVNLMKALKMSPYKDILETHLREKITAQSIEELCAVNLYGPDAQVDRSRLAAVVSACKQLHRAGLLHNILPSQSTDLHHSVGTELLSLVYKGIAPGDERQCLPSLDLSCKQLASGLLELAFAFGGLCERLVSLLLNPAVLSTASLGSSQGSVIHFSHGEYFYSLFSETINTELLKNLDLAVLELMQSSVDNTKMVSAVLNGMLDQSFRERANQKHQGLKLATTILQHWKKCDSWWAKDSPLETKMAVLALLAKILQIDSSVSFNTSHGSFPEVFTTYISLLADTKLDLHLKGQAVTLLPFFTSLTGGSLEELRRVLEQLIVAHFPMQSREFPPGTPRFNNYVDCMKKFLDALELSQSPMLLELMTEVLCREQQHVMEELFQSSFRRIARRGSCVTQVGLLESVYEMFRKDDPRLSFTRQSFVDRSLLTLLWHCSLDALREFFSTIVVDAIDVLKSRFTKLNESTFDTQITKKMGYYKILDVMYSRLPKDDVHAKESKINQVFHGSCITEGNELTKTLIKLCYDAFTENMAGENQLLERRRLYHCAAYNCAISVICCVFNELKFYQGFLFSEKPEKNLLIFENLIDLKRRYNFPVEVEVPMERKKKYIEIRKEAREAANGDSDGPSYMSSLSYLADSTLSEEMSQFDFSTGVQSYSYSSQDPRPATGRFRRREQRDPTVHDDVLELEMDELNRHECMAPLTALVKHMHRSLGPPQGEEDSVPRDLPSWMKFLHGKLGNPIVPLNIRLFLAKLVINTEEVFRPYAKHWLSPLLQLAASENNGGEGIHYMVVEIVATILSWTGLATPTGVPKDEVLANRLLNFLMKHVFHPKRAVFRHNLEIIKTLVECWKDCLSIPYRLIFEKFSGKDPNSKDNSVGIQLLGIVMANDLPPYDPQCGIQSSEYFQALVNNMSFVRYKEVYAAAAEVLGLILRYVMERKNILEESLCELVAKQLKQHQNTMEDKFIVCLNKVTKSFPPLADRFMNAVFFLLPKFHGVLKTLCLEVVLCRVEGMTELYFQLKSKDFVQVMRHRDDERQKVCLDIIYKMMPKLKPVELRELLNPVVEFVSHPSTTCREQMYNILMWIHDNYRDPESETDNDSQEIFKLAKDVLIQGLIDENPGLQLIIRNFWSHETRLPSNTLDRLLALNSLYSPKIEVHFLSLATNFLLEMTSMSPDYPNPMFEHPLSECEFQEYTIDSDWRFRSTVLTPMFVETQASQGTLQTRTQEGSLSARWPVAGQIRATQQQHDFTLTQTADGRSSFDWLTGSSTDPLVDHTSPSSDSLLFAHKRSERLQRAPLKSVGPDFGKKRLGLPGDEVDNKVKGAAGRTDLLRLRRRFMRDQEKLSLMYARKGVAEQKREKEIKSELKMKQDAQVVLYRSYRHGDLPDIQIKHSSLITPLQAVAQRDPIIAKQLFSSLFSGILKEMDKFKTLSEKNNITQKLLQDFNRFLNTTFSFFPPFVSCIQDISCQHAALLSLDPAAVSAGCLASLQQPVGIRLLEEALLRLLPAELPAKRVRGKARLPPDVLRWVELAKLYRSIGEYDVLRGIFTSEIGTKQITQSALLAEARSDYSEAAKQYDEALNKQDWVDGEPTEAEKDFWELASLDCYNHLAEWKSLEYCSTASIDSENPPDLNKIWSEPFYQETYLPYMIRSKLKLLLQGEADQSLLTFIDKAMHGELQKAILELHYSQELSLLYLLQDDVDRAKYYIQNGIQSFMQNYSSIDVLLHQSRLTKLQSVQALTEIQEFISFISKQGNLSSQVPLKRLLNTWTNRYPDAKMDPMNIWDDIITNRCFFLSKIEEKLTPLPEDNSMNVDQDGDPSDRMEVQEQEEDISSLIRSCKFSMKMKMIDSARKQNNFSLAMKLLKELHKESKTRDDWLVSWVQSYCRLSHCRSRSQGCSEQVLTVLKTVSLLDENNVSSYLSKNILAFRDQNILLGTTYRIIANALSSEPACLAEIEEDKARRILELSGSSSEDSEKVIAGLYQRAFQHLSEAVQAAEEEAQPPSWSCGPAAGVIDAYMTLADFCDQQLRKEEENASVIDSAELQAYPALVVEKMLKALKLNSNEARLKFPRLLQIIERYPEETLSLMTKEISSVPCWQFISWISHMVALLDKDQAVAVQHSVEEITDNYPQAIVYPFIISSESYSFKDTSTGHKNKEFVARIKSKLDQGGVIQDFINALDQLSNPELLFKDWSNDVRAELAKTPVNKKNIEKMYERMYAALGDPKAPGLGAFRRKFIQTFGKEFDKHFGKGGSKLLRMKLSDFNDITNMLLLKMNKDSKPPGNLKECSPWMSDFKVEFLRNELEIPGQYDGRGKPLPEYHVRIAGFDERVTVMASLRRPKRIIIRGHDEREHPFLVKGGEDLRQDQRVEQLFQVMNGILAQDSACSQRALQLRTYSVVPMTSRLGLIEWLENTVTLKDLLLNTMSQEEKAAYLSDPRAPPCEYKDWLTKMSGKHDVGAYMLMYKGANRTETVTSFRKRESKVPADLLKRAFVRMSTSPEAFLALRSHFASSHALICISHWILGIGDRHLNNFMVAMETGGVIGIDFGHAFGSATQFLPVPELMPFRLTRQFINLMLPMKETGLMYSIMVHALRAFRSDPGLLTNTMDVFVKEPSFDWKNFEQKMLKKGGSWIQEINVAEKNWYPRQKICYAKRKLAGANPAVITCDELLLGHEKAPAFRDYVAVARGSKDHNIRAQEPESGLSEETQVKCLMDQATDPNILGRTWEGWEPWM
Serine/threonine-protein kinase SBK1 (Homo sapiens), sequence (Q52WX2 whole entry): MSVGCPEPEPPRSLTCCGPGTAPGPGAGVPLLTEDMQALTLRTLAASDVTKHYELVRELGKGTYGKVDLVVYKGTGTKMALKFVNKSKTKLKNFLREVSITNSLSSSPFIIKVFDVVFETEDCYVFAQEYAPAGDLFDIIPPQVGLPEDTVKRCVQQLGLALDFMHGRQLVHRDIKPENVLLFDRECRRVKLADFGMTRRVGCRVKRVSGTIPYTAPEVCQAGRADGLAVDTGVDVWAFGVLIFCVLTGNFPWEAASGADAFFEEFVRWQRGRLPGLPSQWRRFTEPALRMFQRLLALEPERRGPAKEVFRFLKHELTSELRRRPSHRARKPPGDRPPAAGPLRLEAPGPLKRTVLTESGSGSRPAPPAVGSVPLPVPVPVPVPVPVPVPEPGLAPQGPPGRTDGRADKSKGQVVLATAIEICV
Tyrosine-protein kinase HCK (Homo sapiens), sequence (P08631 2-526 limits assumed): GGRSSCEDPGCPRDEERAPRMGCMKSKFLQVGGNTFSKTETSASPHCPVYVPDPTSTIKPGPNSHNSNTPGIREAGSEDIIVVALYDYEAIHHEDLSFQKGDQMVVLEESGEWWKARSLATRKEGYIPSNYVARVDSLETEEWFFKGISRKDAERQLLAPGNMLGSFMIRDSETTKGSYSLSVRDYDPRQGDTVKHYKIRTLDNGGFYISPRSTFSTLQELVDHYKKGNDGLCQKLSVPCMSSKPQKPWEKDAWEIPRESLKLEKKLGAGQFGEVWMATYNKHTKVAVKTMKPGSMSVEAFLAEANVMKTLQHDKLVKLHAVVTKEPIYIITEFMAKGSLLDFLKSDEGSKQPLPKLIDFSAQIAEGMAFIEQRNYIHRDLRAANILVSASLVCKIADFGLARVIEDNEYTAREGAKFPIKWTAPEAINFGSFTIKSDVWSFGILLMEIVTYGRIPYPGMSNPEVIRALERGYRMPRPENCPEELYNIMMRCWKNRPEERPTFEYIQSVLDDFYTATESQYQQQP

CN1CCN(c2cnc3c(C4CCN(C(=O)c5ccc(OC(F)(F)F)cc5N)CC4)ncnc3c2)CC1 [BAY-885]
inactive: [1] 96% | [2] 86% | [3] 109% | [4] 102% | [5] 95% | [6] 118% | [7] 111% | [8] 111%
